ChEMBL document CHEMBL1201862, “PubChem BioAssay data set” (2004)
Several values for one entry are separate records, joined by “and”; a condition that tells them apart may be missing. Identical values can stand only once.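 Each compound was tested at five concentrations against cells in 96-well plates for 48 hours. GI50: concentration for 50% inhibition of growth.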 Activity calls are given as the source filed them. Rule as the data show it: active = GI50 up to about 1.1 µM and inactive = higher.

How the values were obtained:
Assay in all cases: NCI-60 cell line screen, 48 h
M14 = test system: M14
ACHN = test system: ACHN
OVCAR-8 = test system: OVCAR-8
Hs-578T = test system: Hs-578T
NCI-H522 = test system: NCI-H522
MOLT-4 = test system: MOLT-4
OVCAR-4 = test system: OVCAR-4
T47D = test system: T47D
NCI-H460 = test system: NCI-H460
SF-268 = test system: SF-268
DU-145 = test system: DU-145
OVCAR-3 = test system: OVCAR-3
SNB-75 = test system: SNB-75
IGROV-1 = test system: IGROV-1
SK-MEL-2 = test system: SK-MEL-2
786-0 = test system: 786-0
HOP-92 = test system: HOP-92
COLO 205 = test system: COLO 205
HCT-15 = test system: HCT-15
MDA-N = test system: MDA-N
HT-29 = test system: HT-29
EKVX = test system: EKVX
UACC-62 = test system: UACC-62
SR = test system: SR
MDA-MB-231 = test system: MDA-MB-231
HOP-62 = test system: HOP-62
UACC-257 = test system: UACC-257
A549 = test system: A549
Malme-3M = test system: Malme-3M
SF-295 = test system: SF-295
PC-3 = test system: PC-3
SW-620 = test system: SW-620
SK-OV-3 = test system: SK-OV-3
SK-MEL-5 = test system: SK-MEL-5
LOX IMVI = test system: LOX IMVI
SN12C = test system: SN12C
NCI/ADR-RES = test system: NCI/ADR-RES
MDA-MB-435 = test system: MDA-MB-435
KM12 = test system: KM12
A498 = test system: A498
NCI-H226 = test system: NCI-H226
RPMI-8226 = test system: RPMI-8226
K562 = test system: K562
NCI-H23 = test system: NCI-H23
CAKI-1 = test system: CAKI-1
MCF7 = test system: MCF7
SF-539 = test system: SF-539
U-251 = test system: U-251
CCRF-CEM = test system: CCRF-CEM
HL-60 = test system: HL-60
SK-MEL-28 = test system: SK-MEL-28
UO-31 = test system: UO-31
HCT-116 = test system: HCT-116
OVCAR-5 = test system: OVCAR-5
SNB-19 = test system: SNB-19
TK-10 = test system: TK-10
HCC 2998 = test system: HCC 2998

COc1cc(/C=C2\CN(C)CC3=C2N=C(S)NC3c2cc(OC)c(OC)c(OC)c2)cc(OC)c1OC (stereo not given)
GI50 (M14): 51.2 µM (inactive)
GI50 (ACHN): 91.2 µM (inactive)
GI50 (OVCAR-8): 83.2 µM (inactive)
GI50 (Hs-578T): 30.5 µM (inactive)
GI50 (NCI-H522): 54.7 µM (inactive)
GI50 (MOLT-4): 57.4 µM (inactive)
GI50 (OVCAR-4): 56 µM (inactive)
GI50 (T47D): > 100 µM (inactive)
GI50 (NCI-H460): 54.5 µM (inactive)
GI50 (SF-268): 94.4 µM (inactive)
GI50 (DU-145): > 100 µM (inactive)
GI50 (OVCAR-3): > 100 µM (inactive)
GI50 (SNB-75): 28.6 µM (inactive)
GI50 (IGROV-1): 71.8 µM (inactive)
GI50 (SK-MEL-2): > 100 µM (inactive)
GI50 (786-0): 39.2 µM (inactive)
GI50 (HOP-92): > 100 µM (inactive)
GI50 (COLO 205): 79.8 µM (inactive)
GI50 (HCT-15): 80.2 µM
GI50 (MDA-N): 50.2 µM (inactive)
GI50 (HT-29): 67.9 µM (inactive)
GI50 (EKVX): 32.6 µM (inactive)
GI50 (UACC-62): 20.9 µM (inactive)
GI50 (SR): > 100 µM (inactive)
GI50 (MDA-MB-231): 61.9 µM (inactive)
GI50 (HOP-62): 69.7 µM (inactive)
GI50 (UACC-257): > 100 µM (inactive)
GI50 (A549): 49.9 µM (inactive)
GI50 (Malme-3M): > 100 µM (inactive)
GI50 (SF-295): 65.5 µM (inactive)
GI50 (PC-3): 38.3 µM (inactive)
GI50 (SW-620): > 100 µM (inactive)
GI50 (SK-OV-3): > 100 µM (inactive)
GI50 (SK-MEL-5): 17.9 µM (inactive)
GI50 (LOX IMVI): 36.2 µM (inactive)
GI50 (SN12C): 67.9 µM (inactive)
GI50 (NCI/ADR-RES): > 100 µM (inactive)

CC1=CC(=O)CC2(C)CCC(C(C)CC(=O)CC(C)C)CC12OO (stereo not given)
GI50 (M14): 16.5 µM (inactive) and 17.9 µM (inactive)
GI50 (ACHN): 17.6 µM (inactive) and 17.1 µM (inactive)
GI50 (MDA-MB-435): 17.5 µM (inactive) and 18.3 µM (inactive)
GI50 (KM12): 15.6 µM (inactive) and 16.9 µM (inactive)
GI50 (OVCAR-8): 19.2 µM (inactive) and 27.7 µM (inactive)
GI50 (Hs-578T): 46.9 µM (inactive) and 28.4 µM (inactive)
GI50 (A498): 22.4 µM (inactive) and 16.9 µM (inactive)
GI50 (MOLT-4): 14.8 µM (inactive) and 15.8 µM (inactive)
GI50 (OVCAR-4): 27.7 µM (inactive) and 16 µM (inactive)
GI50 (NCI-H226): 18.3 µM (inactive) and 18.7 µM (inactive)
GI50 (RPMI-8226): 16.6 µM (inactive) and 12.5 µM (inactive)
GI50 (SF-268): 17 µM (inactive) and 20 µM (inactive)
GI50 (DU-145): 18 µM (inactive) and 16 µM (inactive)
GI50 (IGROV-1): 15 µM (inactive) and 20 µM (inactive)
GI50 (K562): 10.9 µM (inactive) and 5.53 µM (inactive)
GI50 (SK-MEL-2): 16.9 µM (inactive) and 20.2 µM (inactive)
GI50 (786-0): 10.1 µM (inactive) and 13.1 µM (inactive)
GI50 (HOP-92): 15.9 µM (inactive) and 18 µM (inactive)
GI50 (NCI-H23): 16.5 µM (inactive) and 19.9 µM (inactive)
GI50 (COLO 205): 18.8 µM (inactive) and 14.3 µM (inactive)
GI50 (MDA-N): 18.8 µM (inactive) and 18.1 µM (inactive)
GI50 (CAKI-1): 19.3 µM (inactive)
GI50 (HT-29): 17 µM (inactive) and 20.7 µM (inactive)
GI50 (EKVX): 17.9 µM (inactive) and 19.9 µM (inactive)
GI50 (MCF7): 16.9 µM (inactive) and 17.2 µM (inactive)
GI50 (UACC-62): 20.8 µM (inactive) and 17.6 µM (inactive)
GI50 (SR): 18.5 µM (inactive) and 20.6 µM (inactive)
GI50 (MDA-MB-231): 15.1 µM (inactive) and 18.5 µM (inactive)
GI50 (SF-539): 16.4 µM (inactive) and 15.2 µM (inactive)
GI50 (U-251): 19 µM (inactive) and 17.6 µM (inactive)
GI50 (CCRF-CEM): 20.7 µM (inactive) and 19.6 µM (inactive)
GI50 (HL-60): 1.83 µM (inactive) and 1.87 µM (inactive)
GI50 (SK-MEL-28): 18.5 µM (inactive) and 15.2 µM (inactive)
GI50 (UACC-257): 17.7 µM (inactive) and 17.3 µM (inactive)
GI50 (A549): 16.7 µM (inactive) and 15.4 µM (inactive)
GI50 (Malme-3M): 29.8 µM (inactive) and 16.7 µM (inactive)
GI50 (SF-295): 16.4 µM (inactive) and 17 µM (inactive)
GI50 (PC-3): 14.3 µM (inactive) and 15.7 µM (inactive)
GI50 (SW-620): 19 µM (inactive) and 17.3 µM (inactive)
GI50 (UO-31): 19.9 µM (inactive) and 16.2 µM (inactive)
GI50 (HCT-116): 16.2 µM (inactive) and 16.1 µM (inactive)
GI50 (SK-MEL-5): 15.7 µM (inactive) and 21 µM (inactive)
GI50 (OVCAR-5): 19.9 µM (inactive) and 19.4 µM (inactive)
GI50 (SNB-19): > 100 µM (inactive) and 95.5 µM (inactive)
GI50 (LOX IMVI): 14.6 µM (inactive) and 16.4 µM (inactive)
GI50 (SN12C): 17.6 µM (inactive) and 18.7 µM (inactive)
GI50 (NCI/ADR-RES): 24.8 µM (inactive) and 23.1 µM (inactive)
GI50 (TK-10): 19.3 µM (inactive) and 18.7 µM (inactive)

COc1cc(OC)c(C2c3cc4c(cc3OC(N3CCCC3)C2C)OCO4)c(OC)c1 (stereo not given)
GI50 (M14): 12.2 µM (inactive)
GI50 (ACHN): 5.11 µM (inactive)
GI50 (KM12): 10.6 µM (inactive)
GI50 (OVCAR-8): 16.3 µM (inactive)
GI50 (Hs-578T): 3.77 µM (inactive)
GI50 (NCI-H522): 15.3 µM (inactive)
GI50 (MOLT-4): 10.9 µM (inactive)
GI50 (T47D): 10.5 µM (inactive)
GI50 (RPMI-8226): 16.4 µM (inactive)
GI50 (NCI-H460): 13.2 µM (inactive)
GI50 (SF-268): 8.49 µM (inactive)
GI50 (DU-145): 13 µM (inactive)
GI50 (OVCAR-3): 4.26 µM (inactive)
GI50 (IGROV-1): 13.5 µM (inactive)
GI50 (K562): 19.7 µM (inactive)
GI50 (SK-MEL-2): 18.7 µM (inactive)
GI50 (786-0): 15.9 µM (inactive)
GI50 (NCI-H23): 14.8 µM (inactive)
GI50 (COLO 205): > 10 µM (inactive)
GI50 (HCT-15): 6.11 µM
GI50 (MDA-N): 15 µM (inactive)
GI50 (HT-29): 10.3 µM (inactive)
GI50 (EKVX): 22.3 µM (inactive)
GI50 (MCF7): 14.9 µM (inactive)
GI50 (UACC-62): 16.6 µM (inactive)
GI50 (SR): 11.1 µM (inactive)
GI50 (SF-539): 12.1 µM (inactive)
GI50 (HCC 2998): 10.1 µM (inactive)
GI50 (CCRF-CEM): 15.2 µM (inactive)
GI50 (HOP-62): 16.5 µM (inactive)
GI50 (SK-MEL-28): 18.4 µM (inactive)
GI50 (UACC-257): 19.2 µM (inactive)
GI50 (A549): 19.7 µM (inactive)
GI50 (SF-295): 8.97 µM (inactive)
GI50 (PC-3): 15.7 µM (inactive)
GI50 (SW-620): 9.59 µM (inactive)
GI50 (UO-31): 7.67 µM (inactive)
GI50 (HCT-116): 3.98 µM (inactive)
GI50 (SK-MEL-5): 13.8 µM (inactive)
GI50 (OVCAR-5): 18.5 µM (inactive)
GI50 (SNB-19): 15 µM (inactive)
GI50 (LOX IMVI): 11.9 µM (inactive)
GI50 (SN12C): 15.3 µM (inactive)
GI50 (NCI/ADR-RES): 15.2 µM (inactive)
GI50 (TK-10): 19.1 µM (inactive)
